Laboratory results published in ChEMBL document CHEMBL1201862, “PubChem BioAssay data set” (2004).
Active and inactive are the calls of the source.

Tests used:
Estrogen receptor beta [1] = biological target: T1, Estrogen receptor beta (Homo sapiens, UniProt Q92731);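 further: recombinant ER-beta bound to coactivator SRC1 peptide in presence of estradiol agonist; inhibitors block coactivator peptide binding and lower the FRET signal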
Bcl-2-like protein 10 = biological target: T2, Bcl-2-like protein 10 (Homo sapiens, UniProt Q9HD36); experiment: displacers of TR3 peptide from Bcl-B, primary screen, selectivity assay for Bfl-1 inhibitor project, biochemical, fluorescence polarization, FITC-TR3 peptide (AID 748);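 further: fluorescence polarization from a fluorescein-labelled TR3 peptide binding purified Bcl-B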
T2 sequence (Q9HD36 whole entry): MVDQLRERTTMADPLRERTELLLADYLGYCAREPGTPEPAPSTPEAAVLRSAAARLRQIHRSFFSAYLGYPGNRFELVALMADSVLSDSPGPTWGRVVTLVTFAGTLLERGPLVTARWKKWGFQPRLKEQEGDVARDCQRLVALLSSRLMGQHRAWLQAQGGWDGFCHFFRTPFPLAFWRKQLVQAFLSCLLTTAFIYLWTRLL

Estrogen receptor beta [2] = biological target: T1, Estrogen receptor beta; experiment: ERβ–SRC-3 coactivator interaction inhibitors, confirmation, orthogonal assay, biochemical, ELISA, streptavidin-HRP readout (AID 1060)
[3] = biological target: T3, Carboxy-terminal domain RNA polymerase II polypeptide A small phosphatase 1 (Homo sapiens, UniProt Q9GZU7); experiment: inhibitors of CTDSP1, concentration-response testing, biochemical assay, absorbance-based, actives from ultra-high-throughput screening (AID 540297); format: functional
T3 sequence (Q9GZU7 whole entry): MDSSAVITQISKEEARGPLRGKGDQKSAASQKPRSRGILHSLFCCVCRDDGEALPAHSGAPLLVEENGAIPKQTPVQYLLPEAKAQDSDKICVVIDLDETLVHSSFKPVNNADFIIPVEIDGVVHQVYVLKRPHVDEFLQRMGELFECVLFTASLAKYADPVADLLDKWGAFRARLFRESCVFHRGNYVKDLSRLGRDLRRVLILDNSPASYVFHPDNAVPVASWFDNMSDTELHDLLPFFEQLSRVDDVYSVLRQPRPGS

Hexokinase HKDC1 = biological target: T4, Hexokinase HKDC1 (Homo sapiens, UniProt Q2TB90); experiment: HKDC1 hexokinase inhibitors, dose response, biochemical, W721R variant (AID 504729); format: functional
T4 sequence (Q2TB90 whole entry): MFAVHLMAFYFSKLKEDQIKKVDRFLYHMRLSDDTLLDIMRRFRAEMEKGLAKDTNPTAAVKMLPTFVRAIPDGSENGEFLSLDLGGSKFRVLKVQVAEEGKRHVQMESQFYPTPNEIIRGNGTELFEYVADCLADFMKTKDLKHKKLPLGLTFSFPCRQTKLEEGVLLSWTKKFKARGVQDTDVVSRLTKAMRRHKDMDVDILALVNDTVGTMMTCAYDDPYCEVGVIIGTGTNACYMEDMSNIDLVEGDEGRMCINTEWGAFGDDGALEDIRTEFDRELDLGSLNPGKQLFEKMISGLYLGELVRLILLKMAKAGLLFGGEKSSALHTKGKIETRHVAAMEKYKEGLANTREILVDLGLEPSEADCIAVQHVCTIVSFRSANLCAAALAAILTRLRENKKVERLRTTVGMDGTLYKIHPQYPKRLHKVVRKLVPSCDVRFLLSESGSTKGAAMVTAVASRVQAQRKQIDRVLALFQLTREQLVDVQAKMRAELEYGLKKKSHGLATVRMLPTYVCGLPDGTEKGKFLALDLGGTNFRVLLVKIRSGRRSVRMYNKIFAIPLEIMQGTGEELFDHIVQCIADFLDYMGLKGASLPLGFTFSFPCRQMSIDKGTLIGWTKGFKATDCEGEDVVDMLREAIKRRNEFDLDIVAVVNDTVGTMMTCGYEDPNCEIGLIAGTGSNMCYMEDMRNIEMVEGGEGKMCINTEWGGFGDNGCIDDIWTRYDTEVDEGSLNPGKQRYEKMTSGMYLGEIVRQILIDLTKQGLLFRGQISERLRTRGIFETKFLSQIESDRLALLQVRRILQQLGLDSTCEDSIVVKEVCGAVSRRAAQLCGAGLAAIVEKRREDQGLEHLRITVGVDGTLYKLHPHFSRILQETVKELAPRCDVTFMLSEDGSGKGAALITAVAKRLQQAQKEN

[4] = biological target: T5, Heat shock factor protein 1 (Mus musculus, UniProt P38532); experiment: inhibition of MG132-induced HSE-luciferase signal, confirmation, cell-based, NIH3T3, luminescence, dose retest (AID 2382); format: functional;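 further: NIH3T3 fibroblasts with HSF1-driven luciferase reporter stressed by proteasome inhibitor MG132; luminescence from HSF1-driven luciferase expression after 8 hours of MG132 stress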
T5 sequence (P38532 whole entry): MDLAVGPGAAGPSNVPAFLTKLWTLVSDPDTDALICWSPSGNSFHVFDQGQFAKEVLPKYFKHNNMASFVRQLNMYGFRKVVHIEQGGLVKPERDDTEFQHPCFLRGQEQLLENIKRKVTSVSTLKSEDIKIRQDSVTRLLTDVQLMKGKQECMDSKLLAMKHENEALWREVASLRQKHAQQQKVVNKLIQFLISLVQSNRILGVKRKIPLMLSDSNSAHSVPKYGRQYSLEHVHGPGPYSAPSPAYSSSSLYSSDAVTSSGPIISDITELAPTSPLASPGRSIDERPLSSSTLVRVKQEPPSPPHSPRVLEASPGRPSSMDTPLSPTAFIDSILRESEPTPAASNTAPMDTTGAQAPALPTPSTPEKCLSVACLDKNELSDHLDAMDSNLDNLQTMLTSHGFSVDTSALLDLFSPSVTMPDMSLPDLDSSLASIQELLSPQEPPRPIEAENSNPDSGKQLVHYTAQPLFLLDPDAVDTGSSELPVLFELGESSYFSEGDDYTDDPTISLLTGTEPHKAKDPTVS

H9c2 = experiment: cells; format: functional, cell-based; details: Rattus norvegicus, H9c2, Myocardium;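 further: confirmatory concentration-response retest of ultra-high-throughput screening hits for modulation of myocardial damage; cell death induced by hydrogen peroxide oxidative stress; compound pretreatment for 60 min then peroxide exposure for 2 h; potency is for protecting the cells against peroxide damage rather than for killing them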
[5] = biological target: T6, Nucleotide-binding oligomerization domain-containing protein 1 (Homo sapiens, UniProt Q9Y239); experiment: NOD1 signaling inhibitors, SAR follow-up, revised (AID 2333); format: functional
T6 sequence (Q9Y239 whole entry): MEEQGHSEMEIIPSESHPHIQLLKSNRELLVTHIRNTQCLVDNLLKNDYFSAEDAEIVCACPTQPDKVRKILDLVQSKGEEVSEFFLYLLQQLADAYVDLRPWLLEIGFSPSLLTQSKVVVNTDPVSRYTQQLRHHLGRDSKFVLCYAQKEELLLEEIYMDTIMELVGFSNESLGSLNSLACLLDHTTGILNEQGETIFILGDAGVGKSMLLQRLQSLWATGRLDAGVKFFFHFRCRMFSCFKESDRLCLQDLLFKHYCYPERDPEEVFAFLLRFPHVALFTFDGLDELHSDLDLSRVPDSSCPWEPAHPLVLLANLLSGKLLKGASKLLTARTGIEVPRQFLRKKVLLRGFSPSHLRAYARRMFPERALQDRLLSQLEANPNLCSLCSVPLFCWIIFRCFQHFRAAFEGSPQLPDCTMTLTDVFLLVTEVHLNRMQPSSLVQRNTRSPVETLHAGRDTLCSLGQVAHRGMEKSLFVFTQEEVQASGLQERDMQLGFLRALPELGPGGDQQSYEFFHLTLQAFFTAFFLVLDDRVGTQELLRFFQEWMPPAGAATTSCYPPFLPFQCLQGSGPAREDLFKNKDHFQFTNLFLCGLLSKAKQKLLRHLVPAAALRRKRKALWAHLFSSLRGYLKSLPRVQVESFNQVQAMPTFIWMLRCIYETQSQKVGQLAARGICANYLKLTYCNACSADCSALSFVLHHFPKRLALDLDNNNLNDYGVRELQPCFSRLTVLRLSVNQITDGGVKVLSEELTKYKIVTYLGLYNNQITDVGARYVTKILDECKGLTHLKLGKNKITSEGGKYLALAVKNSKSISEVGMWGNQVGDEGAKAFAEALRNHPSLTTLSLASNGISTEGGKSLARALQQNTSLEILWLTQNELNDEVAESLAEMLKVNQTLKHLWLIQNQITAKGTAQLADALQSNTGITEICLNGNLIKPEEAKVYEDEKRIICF

HEK293 [6] = experiment: cells; details: Homo sapiens
Tumor necrosis factor = Tumor necrosis factor (Homo sapiens, UniProt P01375); experiment: TNFa-triggered NF-kB activation inhibitors, SAR follow-up, cell-based, revised (AID 2337); format: functional
[7] = biological target: T7, Nucleotide-binding oligomerization domain-containing protein 2 (Homo sapiens, UniProt Q9HC29); experiment: PubChem AID 2334; format: functional
HEK293 [8] = experiment: cells; format: functional, cell-based; details: Homo sapiens
HEK293 [9] = experiment: NOD1 signaling inhibitors, primary screen, cell-based, luminescence, uHTS (AID 1578); format: functional; details: Homo sapiens
[10] = biological target: T7, Nucleotide-binding oligomerization domain-containing protein 2; experiment: NOD2 signaling inhibitors, cell-based, luminescence, uHTS, HEK293 (AID 1566); format: functional
Nonstructural protein 1 = Nonstructural protein 1 (Influenza A virus, UniProt Q194T2); format: functional, Influenza A virus (A/California/07/2009(H1N1))
HEK293 [11] = experiment: NOD2 signaling inhibitors in MDP-stimulated cells, cell-based, uHTS, luminescence (AID 2001); format: functional; details: Homo sapiens
HEK293 [12] = experiment: cells; format: functional, cell-based; details: Homo sapiens; remark: listed apart in the source
HEK293 [13] = experiment: cells; format: functional, cell-based; details: Homo sapiens; remark: listed apart in the source
[14] = biological target: Ras and Rab interactor 1/Tyrosine-protein kinase ABL1 (Homo sapiens, UniProt P00519+Q13671); format: functional;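 further: biochemical TR-FRET dose-response test measuring inhibition of binding between Rin1 and Abl proteins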
Ras and Rab interactor 1/Tyrosine-protein kinase ABL1, sequence (P00519 whole entry): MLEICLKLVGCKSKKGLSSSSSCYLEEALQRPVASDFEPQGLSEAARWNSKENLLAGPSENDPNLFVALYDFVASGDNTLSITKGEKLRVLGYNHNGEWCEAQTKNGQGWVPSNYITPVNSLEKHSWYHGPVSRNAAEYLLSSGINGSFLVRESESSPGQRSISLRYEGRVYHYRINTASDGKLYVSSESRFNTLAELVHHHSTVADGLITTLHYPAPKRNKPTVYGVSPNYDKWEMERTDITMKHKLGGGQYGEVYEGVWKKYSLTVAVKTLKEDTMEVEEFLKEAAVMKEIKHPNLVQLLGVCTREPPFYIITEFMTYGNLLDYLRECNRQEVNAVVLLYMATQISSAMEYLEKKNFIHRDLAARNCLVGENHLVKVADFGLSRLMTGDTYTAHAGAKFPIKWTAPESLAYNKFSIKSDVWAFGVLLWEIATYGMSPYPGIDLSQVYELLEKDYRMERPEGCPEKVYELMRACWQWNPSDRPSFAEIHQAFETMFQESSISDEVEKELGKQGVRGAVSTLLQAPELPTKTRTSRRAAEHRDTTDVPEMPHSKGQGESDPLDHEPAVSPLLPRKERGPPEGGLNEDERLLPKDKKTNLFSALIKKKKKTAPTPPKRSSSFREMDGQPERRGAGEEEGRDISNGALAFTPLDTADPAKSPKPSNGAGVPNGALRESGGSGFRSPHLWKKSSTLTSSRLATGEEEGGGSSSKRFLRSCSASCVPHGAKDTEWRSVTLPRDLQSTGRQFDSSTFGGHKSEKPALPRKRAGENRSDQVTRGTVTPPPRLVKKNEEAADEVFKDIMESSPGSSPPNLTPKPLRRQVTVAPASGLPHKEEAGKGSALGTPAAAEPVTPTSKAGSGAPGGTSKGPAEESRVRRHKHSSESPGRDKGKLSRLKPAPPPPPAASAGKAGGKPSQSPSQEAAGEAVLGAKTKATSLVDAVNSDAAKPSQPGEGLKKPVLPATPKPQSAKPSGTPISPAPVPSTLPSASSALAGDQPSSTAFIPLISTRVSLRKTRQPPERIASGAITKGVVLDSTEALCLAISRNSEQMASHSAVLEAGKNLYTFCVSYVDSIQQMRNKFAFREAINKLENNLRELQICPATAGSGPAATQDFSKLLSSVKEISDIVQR
Ras and Rab interactor 1/Tyrosine-protein kinase ABL1, sequence (Q13671 whole entry): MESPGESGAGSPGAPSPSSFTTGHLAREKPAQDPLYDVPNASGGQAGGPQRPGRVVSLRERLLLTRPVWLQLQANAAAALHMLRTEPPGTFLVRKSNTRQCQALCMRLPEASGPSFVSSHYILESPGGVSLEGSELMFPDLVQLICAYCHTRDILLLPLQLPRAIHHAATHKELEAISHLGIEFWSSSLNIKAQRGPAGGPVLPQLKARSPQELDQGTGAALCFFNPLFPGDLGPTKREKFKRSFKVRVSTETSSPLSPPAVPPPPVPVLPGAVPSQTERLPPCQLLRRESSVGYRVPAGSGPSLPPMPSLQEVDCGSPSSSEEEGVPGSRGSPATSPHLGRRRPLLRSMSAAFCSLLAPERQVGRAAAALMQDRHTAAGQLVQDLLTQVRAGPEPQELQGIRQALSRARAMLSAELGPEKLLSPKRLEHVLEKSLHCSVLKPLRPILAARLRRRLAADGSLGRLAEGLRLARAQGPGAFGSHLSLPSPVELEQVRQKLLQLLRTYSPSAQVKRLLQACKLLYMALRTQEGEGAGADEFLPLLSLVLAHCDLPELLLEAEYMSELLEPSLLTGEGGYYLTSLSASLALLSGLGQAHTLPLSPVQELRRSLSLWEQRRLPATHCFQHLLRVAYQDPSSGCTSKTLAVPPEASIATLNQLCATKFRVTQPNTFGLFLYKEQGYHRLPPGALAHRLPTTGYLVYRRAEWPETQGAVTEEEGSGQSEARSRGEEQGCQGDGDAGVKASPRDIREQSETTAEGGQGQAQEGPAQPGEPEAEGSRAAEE

T7 sequence (Q9HC29 whole entry, the tested form may be a part): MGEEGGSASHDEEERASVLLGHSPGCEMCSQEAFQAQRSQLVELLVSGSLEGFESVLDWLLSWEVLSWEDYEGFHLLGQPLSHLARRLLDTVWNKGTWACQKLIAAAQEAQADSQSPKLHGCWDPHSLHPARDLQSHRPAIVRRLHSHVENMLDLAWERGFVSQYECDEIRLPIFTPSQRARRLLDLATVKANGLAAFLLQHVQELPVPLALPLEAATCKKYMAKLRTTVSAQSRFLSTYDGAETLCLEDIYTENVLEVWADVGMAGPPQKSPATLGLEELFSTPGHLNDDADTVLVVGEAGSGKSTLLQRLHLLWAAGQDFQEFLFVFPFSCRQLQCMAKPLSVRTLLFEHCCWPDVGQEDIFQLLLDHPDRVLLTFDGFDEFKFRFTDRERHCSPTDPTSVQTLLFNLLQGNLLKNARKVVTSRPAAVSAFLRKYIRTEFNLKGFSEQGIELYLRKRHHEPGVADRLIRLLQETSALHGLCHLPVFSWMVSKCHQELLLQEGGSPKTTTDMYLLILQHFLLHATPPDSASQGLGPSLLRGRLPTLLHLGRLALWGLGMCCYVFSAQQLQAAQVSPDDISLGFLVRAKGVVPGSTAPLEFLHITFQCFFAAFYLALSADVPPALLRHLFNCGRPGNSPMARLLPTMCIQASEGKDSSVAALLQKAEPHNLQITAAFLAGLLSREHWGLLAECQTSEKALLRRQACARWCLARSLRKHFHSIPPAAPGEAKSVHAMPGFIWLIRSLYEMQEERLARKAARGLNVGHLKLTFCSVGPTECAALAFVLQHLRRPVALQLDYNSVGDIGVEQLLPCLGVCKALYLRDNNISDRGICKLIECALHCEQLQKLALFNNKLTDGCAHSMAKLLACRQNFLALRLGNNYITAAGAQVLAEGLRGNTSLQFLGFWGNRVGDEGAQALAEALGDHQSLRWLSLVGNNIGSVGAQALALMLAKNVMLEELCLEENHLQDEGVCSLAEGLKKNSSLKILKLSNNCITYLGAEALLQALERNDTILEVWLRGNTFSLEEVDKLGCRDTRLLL
T1 sequence (Q92731 whole entry): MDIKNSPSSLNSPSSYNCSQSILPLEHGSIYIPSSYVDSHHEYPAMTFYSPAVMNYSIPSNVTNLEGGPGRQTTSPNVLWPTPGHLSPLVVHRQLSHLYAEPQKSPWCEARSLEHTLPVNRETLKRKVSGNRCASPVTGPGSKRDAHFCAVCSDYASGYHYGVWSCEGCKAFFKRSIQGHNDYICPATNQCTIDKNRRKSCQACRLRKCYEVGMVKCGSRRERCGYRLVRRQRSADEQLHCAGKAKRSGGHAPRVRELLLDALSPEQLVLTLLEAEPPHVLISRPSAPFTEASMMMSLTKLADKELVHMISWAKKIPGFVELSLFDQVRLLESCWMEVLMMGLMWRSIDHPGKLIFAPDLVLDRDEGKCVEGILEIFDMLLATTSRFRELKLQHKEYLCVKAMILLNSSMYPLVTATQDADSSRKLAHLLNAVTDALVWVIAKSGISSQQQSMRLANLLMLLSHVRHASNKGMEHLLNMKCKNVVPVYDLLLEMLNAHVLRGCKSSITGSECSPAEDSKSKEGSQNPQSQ
Tumor necrosis factor, sequence (P01375 whole entry, the tested form may be a part): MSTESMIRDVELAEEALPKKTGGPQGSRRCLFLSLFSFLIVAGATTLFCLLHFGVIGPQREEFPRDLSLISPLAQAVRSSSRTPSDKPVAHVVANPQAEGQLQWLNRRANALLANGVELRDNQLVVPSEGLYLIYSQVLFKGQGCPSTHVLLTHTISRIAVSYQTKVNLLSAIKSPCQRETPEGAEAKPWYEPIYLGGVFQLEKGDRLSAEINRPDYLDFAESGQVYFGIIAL
Nonstructural protein 1, sequence (Q194T2 whole entry): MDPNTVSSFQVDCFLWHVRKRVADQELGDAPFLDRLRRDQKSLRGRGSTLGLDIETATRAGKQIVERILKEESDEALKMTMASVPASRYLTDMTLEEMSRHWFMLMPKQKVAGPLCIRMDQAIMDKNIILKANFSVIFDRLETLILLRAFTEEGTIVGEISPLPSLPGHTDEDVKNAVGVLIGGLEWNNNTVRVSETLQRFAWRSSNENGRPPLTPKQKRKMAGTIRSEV

SMILES	IC50 (Estrogen receptor beta [1])	IC50 (Bcl-2-like protein 10)	IC50 (Estrogen receptor beta [2])	IC50 [5]	IC50 (HEK293 [6])	IC50 (Tumor necrosis factor)	IC50 [7]	also measured
O=C(c1cc2c(s1)CCC2)N1CCN(c2ccccc2)CC1	3.87 µM (active)	36.3 µM (active)	> 50 µM (not active)					IC50 [3]: 22.4 µM (active)
CCOc1ccccc1Nc1nnc(SCc2nnc(-c3cc(OC)c(OC)c(OC)c3)o2)s1								IC50 (Hexokinase HKDC1): 18.8 µM (active); EC50 [4]: 21.7 µM (active); IC50 (H9c2): > 79 µM (inactive)
Cc1cc(C(=O)NC2CCCc3c2cnn3-c2ccccc2F)n(C)n1 (stereo unspecified)				0.146 µM (active)	> 20 µM (inactive)	> 20 µM (inactive)	> 20 µM (inactive)	
N#CC(c1ccccc1)c1ccc2c(C(F)(F)F)cc(C(F)(F)F)nc2n1 (stereo unspecified)				3.71 µM (active)	> 20 µM (inactive)	5.88 µM (active)	3.99 µM (active)	IC50 (HEK293 [8]): > 20 µM (inactive); EC50 (HEK293 [9]): 4.36 µM (active); EC50 [10]: 13.4 µM (active); IC50 (Nonstructural protein 1): 21.3 µM (active); IC50 (HEK293 [11]): > 20 µM (inactive); IC50 (HEK293 [12]): 15.4 µM (active); IC50 (HEK293 [13]): > 20 µM (inactive)
Cc1ccc(-n2c(SCc3cc(=O)n4ccsc4n3)nnc2-c2cccnc2)c(C)c1	> 50 µM (not active)	> 100 µM (inactive)	0.721 µM (not active)					IC50 [14]: 19.6 µM (inactive)
